Assay results as given in patent US20180200293A1, “STABILIZED GOLD NANOPARTICLES” (priority 2014, published 2018).

Key:
[1] = scavenger concentrations as high as 2 M; cited from earlier work
[2] = Electron capture by AuNPs in water, muon spin resonance (μSR); settings: degassed 0.1 M aqueous surfactant reference solution, absence of AuNPs
Excerpt: To deconstruct the complex electron-transfer reactions in water, we used a highly sensitive spectroscopic technique involving the positive muon (μ+) using the muon spin resonance (μSR) technique (18). The μSR technique is a type of spin spectroscopy that makes use of short-lived subatomic particles, muons (μ^+), which are sensitive magnetic and electronic probes of matter.
A degassed 0.1 M aqueous solution of the dissolved surfactant (bac-14) was used as a reference. […] These electrons therefore combine with positive muons or MuH2O^+ ions to form paramagnetic muonium, an ultra-light hydrogen atom (0.11H) that adds to the aromatic ring of the surfactant (FIG. 15).
The diamagnetic fraction shown in the transverse field spectra (FIG. 17) is enhanced when muons enter the AuNP solution, as compared with the reference solution containing a similar surfactant concentration and evaluated under the same experimental conditions (same sample geometry and magnetic field).
In aqueous solutions, the competition of Reactions 1-5 in the radiation track determines the muon fractions (19-21). […]
where [AuNP] is the AuNP concentration calculated to be 4.89×10^-7 M (see supplementary information) and the muon thermalization rate (10) is at least 1 ns−1.
The lower limit of the electron capture rate constant (ke) for the AuNPs, using Eq. 1, was determined to be 2×10^15 M^−1 s^−1. […]

Row | Compound | electron capture rate (reported for known scavengers) [1] [M⁻¹ s⁻¹] | trapping of solvated or pre-solvated electrons [2]
1 | C[S+](C)[O-] [DMSO] | 8.1e+11 | –
2 | CC(C)O [isopropanol] | 2.3e+11 | –
3 | CCCCCCCCCCCCCC[N+](C)(C)Cc1ccccc1.[Cl-] [bac-14, Benzyldimethyltetradecylammonium chloride] | – | unable to effectively trap the solvated or pre-solvated electrons
4 | O=[N+]([O-])[O-].[K+] [KNOB] | 1.2e+13 | –
